From patent US20240158348A1, “HERBICIDAL CYCLIC AMIDES N-SUBSTITUTED WITH A HALOALKYLSULFONYLANILIDE GROUP” (FMC Corporation, priority 2021, published 2024)

Experiments:
Type in all cases: in vivo
[1] = system: wheat (Triticum aestivum); experiment: Test C postemergence, wheat; conditions: visual injury, 0 to 100 scale (0 no effect, 100 complete control)
Description: (§1) Seeds of plant species selected from blackgrass (Alopecurus myosuroides), corn (Zea mays), foxtail, giant (giant foxtail, Setaria faberi), goosegrass (Eleusine indica), kochia (Bassia scoparia), oat, wild (wild oat, Avena fatua), pigweed, palmer (palmer amaranth, Amaranthus palmeri), ragweed (common ragweed, Ambrosia artemisiifolia), ryegrass, Italian (Italian ryegrass, Lolium multiflorum), soybean (Glycine max) and wheat (Triticum aestivum) were planted into a blend of loam soil and sand and treated preemergence with a directed soil spray using test chemicals formulated in a non-phytotoxic solvent mixture which included a surfactant.
(§2) At the same time, plants selected from these crop and weed species and also galium (catchweed bedstraw, Galium aparine) and horseweed (Erigeron canadensis) were planted in pots containing the same blend of loam soil and sand and treated with postemergence applications of test chemicals formulated in the same manner. Plants ranged in height from 2 to 10 cm and were in the one- to two-leaf stage for the postemergence treatment. Treated plants and untreated controls were maintained in a greenhouse for 10 or 12 days, after which time all treated plants were compared to untreated controls and visually evaluated for injury. Plant response ratings, summarized in Table A, are based on a 0 to 100 scale where 0 is no effect and 100 is complete control. A dash (-) response means no test result.

[2] = system: sedge, umbrella (small-flower umbrella sedge, Cyperus difformis); experiment: Test D flooded paddy test, umbrella sedge; parameters: key: 0 = no effect, 100 = complete control; conditions: 250 g ai/ha, Flood; applied to paddy water at 2-leaf stage; visual rating after 13 days; scale 0 (no effect) to 100 (complete control)
Description: (§3) Plant species in the flooded paddy test selected from barnyardgrass (Echinochloa crusgalli), ducksalad (Heteranthera limosa), rice (Oryza sativa), and sedge, umbrella (small-flower umbrella sedge, Cyperus difformis) were grown to the 2-leaf stage for testing. At time of treatment, test pots were flooded to 3 cm above the soil surface, treated by application of test compounds directly to the paddy water, and then maintained at that water depth for the duration of the test. Treated plants and controls were maintained in a greenhouse for 13 days, after which time all species were compared to controls and visually evaluated. Plant response ratings, summarized in Table B, are based on a scale of 0 to 100 where 0 is no effect and 100 is complete control. A dash (-) response means no test result.

[3] = system: wheat (Triticum aestivum); experiment: Test C preemergence, wheat; conditions: 0 is no effect, 100 is complete control
Description: as §1, §2

[4] = system: oat, wild (wild oat, Avena fatua); experiment: Test C postemergence, wild oat
Description: as §1, §2

[5] = system: pigweed, palmer (palmer amaranth, Amaranthus palmeri); experiment: Test C preemergence, palmer amaranth; conditions: 0 is no effect, 100 is complete control
Description: as §1, §2

kochia (Bassia scoparia) [6] = experiment: Test C postemergence, kochia
Description: as §1, §2

[7] = system: blackgrass (Alopecurus myosuroides); experiment: Test C preemergence, blackgrass; conditions: 0 is no effect, 100 is complete control
Description: as §1, §2

[8] = system: foxtail, giant (giant foxtail, Setaria faberi); experiment: Test C preemergence, giant foxtail; conditions: 0 is no effect, 100 is complete control
Description: as §1, §2

[9] = system: goosegrass (Eleusine indica); experiment: Test C preemergence, goosegrass; conditions: 0 is no effect, 100 is complete control
Description: as §1, §2

[10] = system: ryegrass, Italian (Italian ryegrass, Lolium multiflorum); experiment: Test C postemergence, Italian ryegrass; conditions: visual injury, 0 to 100 scale (0 no effect, 100 complete control)
Description: as §1, §2

[11] = system: oat, wild (wild oat, Avena fatua); experiment: Test C preemergence, wild oat; conditions: 0 is no effect, 100 is complete control
Description: as §1, §2

soybean (Glycine max) [12] = experiment: Test C preemergence, soybean; conditions: 0 is no effect, 100 is complete control
Description: as §1, §2

[13] = system: foxtail, giant (giant foxtail, Setaria faberi); experiment: Test C postemergence, giant foxtail
Description: as §1, §2

kochia (Bassia scoparia) [14] = experiment: Test C preemergence, kochia; conditions: 0 is no effect, 100 is complete control
Description: as §1, §2

corn (Zea mays) [15] = experiment: Test C postemergence, corn
Description: as §1, §2

[16] = system: goosegrass (Eleusine indica); experiment: Test C postemergence, goosegrass
Description: as §1, §2

[17] = system: blackgrass (Alopecurus myosuroides); experiment: Test C postemergence, blackgrass; conditions: 125 g ai/ha Postemergence; 0 is no effect, 100 is complete control
soybean (Glycine max) [18] = experiment: Test C postemergence, soybean; conditions: visual injury, 0 to 100 scale (0 no effect, 100 complete control)
Description: as §1, §2

[19] = system: barnyardgrass (Echinochloa crusgalli); experiment: Test D flooded paddy test, barnyardgrass; parameters: key: 0 = no effect, 100 = complete control; conditions: 250 g ai/ha, Flood; applied to paddy water at 2-leaf stage; visual rating after 13 days; scale 0 (no effect) to 100 (complete control)
Description: as §3

[20] = system: galium (catchweed bedstraw, Galium aparine); experiment: Test C postemergence, galium
Description: as §1, §2

[21] = system: ryegrass, Italian (Italian ryegrass, Lolium multiflorum); experiment: Test C preemergence, Italian ryegrass; conditions: 0 is no effect, 100 is complete control
Description: as §1, §2

[22] = system: pigweed, palmer (palmer amaranth, Amaranthus palmeri); experiment: Test C postemergence, palmer amaranth; conditions: visual injury, 0 to 100 scale (0 no effect, 100 complete control)
Description: as §1, §2

[23] = system: blackgrass (Alopecurus myosuroides); experiment: Test C postemergence, blackgrass; conditions: 31 g ai/ha Postemergence; visual injury, 0 to 100 scale (0 no effect, 100 complete control)
Description: as §1, §2

[24] = system: ragweed (common ragweed, Ambrosia artemisiifolia); experiment: Test C preemergence, ragweed; conditions: 0 is no effect, 100 is complete control
Description: as §1, §2

[25] = system: ragweed (common ragweed, Ambrosia artemisiifolia); experiment: Test C postemergence, ragweed; conditions: visual injury, 0 to 100 scale (0 no effect, 100 complete control)
Description: as §1, §2

rice (Oryza sativa) = experiment: Test D flooded paddy test, rice; parameters: key: 0 = no effect, 100 = complete control; conditions: 250 g ai/ha, Flood; applied to paddy water at 2-leaf stage; visual rating after 13 days; scale 0 (no effect) to 100 (complete control)
Description: as §3

corn (Zea mays) [26] = experiment: Test C preemergence, corn; conditions: 0 is no effect, 100 is complete control
Description: as §1, §2

[27] = system: ducksalad (Heteranthera limosa); experiment: Test D flooded paddy test, ducksalad; parameters: key: 0 = no effect, 100 = complete control; conditions: 250 g ai/ha, Flood; applied to paddy water at 2-leaf stage; visual rating after 13 days; scale 0 (no effect) to 100 (complete control)
Description: as §3

[28] = 31 g ai/ha Postemergence, visual injury, 0 to 100 scale (0 no effect, 100 complete control)
[29] = 125 g ai/ha Postemergence, 0 is no effect, 100 is complete control

## Cc1cc(C)c(N2CCC(OC3CC3)C2=O)cc1NS(=O)(=O)C(F)(F)F (single isomer, unassigned) [Compound 29]
[1]; 31 g ai/ha Postemergence
  Wheat plant response rating: 70
[1]; 125 g ai/ha Postemergence
  Wheat plant response rating: 70
[2]
  Plant response rating, Sedge, Umbrella: 95
[3]; 31 g ai/ha Preemergence
  Plant response rating (0 to 100 scale), Wheat: 90
[3]; 125 g ai/ha Preemergence
  Plant response rating (0 to 100 scale), Wheat: 100
[4]; [28]
  Oat, Wild plant response rating: 20
[4]; [29]
  Plant response rating (0 to 100 scale), Oat, Wild: 80
[5]; 31 g ai/ha Preemergence
  Plant response rating (0 to 100 scale), Pigweed, Palmer: 100
[5]; 125 g ai/ha Preemergence
  Plant response rating (0 to 100 scale), Pigweed, Palmer: 100
Kochia (Bassia scoparia) [6]; [28]
  Kochia plant response rating: 60
Kochia (Bassia scoparia) [6]; [29]
  Plant response rating (0 to 100 scale), Kochia: 90
[7]; 31 g ai/ha Preemergence
  Plant response rating (0 to 100 scale), Blackgrass: 90
[7]; 125 g ai/ha Preemergence
  Plant response rating (0 to 100 scale), Blackgrass: 90
[8]; 31 g ai/ha Preemergence
  Plant response rating (0 to 100 scale), Foxtail, Giant: 90
[8]; 125 g ai/ha Preemergence
  Plant response rating (0 to 100 scale), Foxtail, Giant: 100
[9]; 31 g ai/ha Preemergence
  Plant response rating (0 to 100 scale), Goosegrass: 100
[9]; 125 g ai/ha Preemergence
  Plant response rating (0 to 100 scale), Goosegrass: 100
[10]; 31 g ai/ha Postemergence
  Ryegrass, Italian plant response rating: 70
[10]; 125 g ai/ha Postemergence
  Ryegrass, Italian plant response rating: 100
[11]; 31 g ai/ha Preemergence
  Plant response rating (0 to 100 scale), Oat, Wild: 90
[11]; 125 g ai/ha Preemergence
  Plant response rating (0 to 100 scale), Oat, Wild: 90
Soybean (Glycine max) [12]; 31 g ai/ha Preemergence
  Plant response rating (0 to 100 scale), Soybean: 90
Soybean (Glycine max) [12]; 125 g ai/ha Preemergence
  Plant response rating (0 to 100 scale), Soybean: 100
[13]; [28]
  Foxtail, Giant plant response rating: 90
[13]; [29]
  Plant response rating (0 to 100 scale), Foxtail, Giant: 90
Kochia (Bassia scoparia) [14]; 31 g ai/ha Preemergence
  Plant response rating (0 to 100 scale), Kochia: 90
Kochia (Bassia scoparia) [14]; 125 g ai/ha Preemergence
  Plant response rating (0 to 100 scale), Kochia: 100
Corn (Zea mays) [15]; [28]
  Corn plant response rating: 80
Corn (Zea mays) [15]; [29]
  Plant response rating (0 to 100 scale), Corn: 90
[16]; [28]
  Goosegrass plant response rating: 90
[16]; [29]
  Plant response rating (0 to 100 scale), Goosegrass: 90
[17]
  Plant response rating (0 to 100 scale), Blackgrass: 70
Soybean (Glycine max) [18]; 31 g ai/ha Postemergence
  Soybean plant response rating: 60
Soybean (Glycine max) [18]; 125 g ai/ha Postemergence
  Soybean plant response rating: 100
[19]
  Plant response rating, Barnyardgrass: 95
[20]; [28]
  Galium plant response rating: 80
[20]; [29]
  Plant response rating (0 to 100 scale), Galium: 100
[21]; 31 g ai/ha Preemergence
  Plant response rating (0 to 100 scale), Ryegrass, Italian: 100
[21]; 125 g ai/ha Preemergence
  Plant response rating (0 to 100 scale), Ryegrass, Italian: 100
[22]; 31 g ai/ha Postemergence
  Pigweed, Palmer plant response rating: 60
[22]; 125 g ai/ha Postemergence
  Pigweed, Palmer plant response rating: 90
[23]
  Blackgrass plant response rating: 60
[24]; 31 g ai/ha Preemergence
  Plant response rating (0 to 100 scale), Ragweed: 80
[24]; 125 g ai/ha Preemergence
  Plant response rating (0 to 100 scale), Ragweed: 90
[25]; 31 g ai/ha Postemergence
  Ragweed plant response rating: 60
[25]; 125 g ai/ha Postemergence
  Ragweed plant response rating: 80
Rice (Oryza sativa)
  Plant response rating, Rice: 85
Corn (Zea mays) [26]; 31 g ai/ha Preemergence
  Plant response rating (0 to 100 scale), Corn: 80
Corn (Zea mays) [26]; 125 g ai/ha Preemergence
  Plant response rating (0 to 100 scale), Corn: 90
[27]
  Plant response rating, Ducksalad: 45
